Counter-ions that a name gives are not always drawn.
Legend:
[1] = tested on: oHSV-1 (G207) in BV2 cells; assay: G207 replication in BV2 cells with chemical inhibitors, plaque forming assay; format: cell-based, HSV-1; details: G207 MOI of 1, 48 hours
Protocol: (§1) FIG. 12A contains bar graphs showing the results of BV2 cells that were pre-treated with indicated chemical compounds for 1-2 hours and then infected with oHSV-1 at an MOI of 1. Viruses were harvested after 48 hours of oHSV-1 (G207) and indicated chemical inhibitor treatment.
as §1, with “12F is a” for “12A contains”, “graph” for “graphs”, “treatment. After 48 hours of treatment with oHSV-1 (G207) and C16, viruses were harvested and titrated by plaque forming assay on vero cells.” for “treatment.”
U87 (5×104) alone or U87+microglia co-culture (5×104+5×104) or BV2 microglia cells (5×104) alone were seeded into a 24-well plate. After overnight incubation (to allow the cells to attach), cells were pretreated with indicated concentration of NFkB inhibitor, Bay-11 (Santa Cruz, Canada) or an indicated concentration of imidazolo-oxindole derivative C16 (Milipore, Canada) or vehicle for 1-2 hours. The cells were then infected with oHSV-1 (G207 or HrR3) virus at a MOI of 1 in presence of chemical inhibitors for another 2 days. The viruses were harvested and titrated in vero cells by plaque forming assay in 12-well plates by triplicates.
The effects of a PKR inhibitor (C16), a NFkappaB inhibitor (Bay11), and an iNOS inhibitor (aminoguanidine hydrochloride) were tested on G207 replication in BV2 cells (Example 15). […] To verify that C16-mediated viral gene transcriptional augmentation is not due to deletions in ICP34.5 and/or ICP6 in G207, the effect of C16 on wild type (KOS) and ICP6 mutated (HrR3) HSV-1 infected BV2 cells was also examined. […] Finally, whether C16 can overcome this microglia-mediated suppression of viral replication in glioma cells was examined.

[2] = tested on: ICP4; assay: Western blot of ICP4 in HSV-1 infected microglia cells; format: cell-based; details: G207 infected; 1 μM C16, 1 μM Bay11 or 100 μM AG; 24 hours
Protocol: FIG. 12B depicts an electrophoresis gel showing total proteins that were harvested from G2O7 infected microglia cells at 24 hours post treatment with either 1 μM of C16, 1 μM of Bay11, or 100 μM of AG. ICP27, ICP4, and […] expression was measured by western blot assay. U87 and MG co-culture were pretreated with 0.5 μM of C16 for 1 hour.
Total protein was harvested with sample buffer (125 mM Tris-HCL, 50% Glycerol, […] and 5% 2-mercaptoethanol) and boiled for 5 minutes. Protein samples were subjected to SDS-PAGE (8% gel), transferred to nitrocellulose membranes and blocked in 5% nonfat milk (Bio Rad) in TBS-Tween 20 (TBS-T) for 1 hour at room temperature. The membranes were then incubated with primary antibody against β-actin at 1:1000 (Cell Signaling, Danvers, Mass.) or anti-STAT1 antibody at 1:1000 (Cell Signaling, Danvers, Mass.) or anti-STAT3 antibody at 1:1000 (Cell Signaling, Danvers, Mass.) or anti-phospho STAT1 antibody (Tyr701) at 1:1000 (Cell Signaling, Danvers, Mass.) or anti-phospho STAT3 antibody (Tyr705) at 1:1500 (Cell Signaling, Danvers, Mass.) or anti-phosphor-eIF2a antibody (ser51) at 1:1000 (Cell Signaling, Danvers, Mass.) or anti-ICP27 antibody at 1:1000 (Abcam, Cambridge, Mass.) or anti-ICP4 antibody at 1:750 (Abcam, Cambridge, Mass.) for overnight at 4° C. […] Band density was measured by using ImageJ software (NIH, Bethesda, Md.). […]

Row | SMILES | effect on oHSV-1 replication [1] | upregulated expression of ICP4 [2]
1 | Cc1ccc(S(=O)(=O)/C=C/C#N)cc1 [Bay11] | no effect on oHSV-1 replication | not
2 | N=C(N)NN [aminoguanidine hydrochloride] | no effect on oHSV-1 replication | –

Source: patent US20190307820A1, “COMPOSITIONS AND METHODS OF USING STAT1/3 INHIBITORS WITH ONCOLYTIC HERPES VIRUS” (priority 2016, published 2019)
